# Measured values: patent US4404230A, “4-Hydroxy-1,2-Benzisothiazol-3(2H)-one-1,1-dioxides and salts thereof” (priority 1980, dated 1983)
# Key:
# thrombocyte aggregation = test: Effect on thrombocyte aggregation induced by collagen; type: cell-based; conditions: 1×10^-4 mol/liter, collagen-induced
# Protocol: The thrombocyte aggregation was measured according to Born and Cross [J. Physiol. 170, 397 (1964)] in platelet-rich plasma obtained by centrifuging citrate blood. The change in the maximum aggregation rate in % compared with a control, and the percent change in the "optical density" were the measured parameters. The aggregation was induced by collagen.
# rats [1] = test: Effect on the kaolin edema in rats; type: in vivo, Chbb:THOM-rats; conditions: 100 mg/kg p.o.
# Protocol: According to Hillebrecht [Arzneimittel-Forschung 4, 607 (1954)] an edema was induced in 20 Chbb:THOM-rats (SPF) of both sexes having a body weight of 125-150 gm by subplantar injection of 0.05 ml of a 10% kaolin suspension in the hind paw. 30 minutes before, 100 mg/kg of substance B as aqua dist. solution was orally administered to 10 animals. Ten control animals received only the solvent. The thickness of the paw was measured before the administration of the test compound and 5 hours after administration. The edema-altering effect was expressed in percent of the average degree of swelling of the control animals.
# [2] = Determination of water-solubility; type: physicochemical
# anesthetized cats = test: Effect on the blood circulation in anesthetized cats; type: in vivo; conditions: 10 mg/kg i.v.
# Protocol: In 3 adult anesthetized cats the following parameters were measured:
# The arterial blood pressure in the Arteria carotis by means of a Statham pressure transducer;
# The heart rate by means of a Grass-tachograph;
# The respiration rate by means of a Fleisch pneumotachograph;
# 10 mg/kg of substance B as a solution in aqua dist. were administered i.v.
# [3] = system: Serratia marcescens ATCC 13880; test: Bacteriostasis, agar diffusion test; type: cell-based; conditions: 16,000 μg/ml
# Protocol: (§1) Substance B was tested with regard to its bacteria- and fungi-inhibiting effect by the serial dilution test and agar diffusion test.
# Sc. pyogenes ATCC 8688 [4] = test: Bacteriostasis, agar diffusion test; type: cell-based; conditions: 16,000 μg/ml
# Protocol: as §1
# [5] = system: Escherichia coli ATCC 9637; test: Bacteriostasis, agar diffusion test; type: cell-based; conditions: 16,000 μg/ml
# Protocol: as §1
# [6] = system: Pseudomonas aeruginosa Hbg.; test: Bacteriostasis, agar diffusion test; type: cell-based; conditions: 16,000 μg/ml
# Protocol: as §1
# Streptococcus Aronson [7] = test: Bacteriostasis, agar diffusion test; type: cell-based; conditions: 16,000 μg/ml
# Protocol: as §1
# [8] = system: Staphylococcus aureus SG 511; test: Bacteriostasis, agar diffusion test; type: cell-based; conditions: 16,000 μg/ml
# Protocol: as §1
# rats [9] = test: Effect on motility of rats (sedative or stimulating effect); type: in vivo, Chbb:THOM-rats; conditions: 100 mg/kg p.o.
# Protocol: In analogy to the method described by Fuhrer and Feldhofen (Arzneimittel-Forschung 11, 1027, 1961) substance B was tested on 6 female Chbb:THOM-rats (SPF) having a body weight of 160-190 gm, after administration of 100 mg/kg p.o. in a suspension of 1% tylose. The motility of the rats in cages was measured for 30 minutes one hour after administration of the test compound. A control group received only tylose. The change in motility given in percent with regard to that of the control group was determined.
# [10] = system: Serratia marcescens ATCC 13880; test: Bacteriostasis, serial dilution test; type: cell-based; conditions: 320 μg/ml
# Protocol: as §1
# Sc. pyogenes ATCC 8688 [11] = test: Bacteriostasis, serial dilution test; type: cell-based; conditions: 320 μg/ml
# Protocol: as §1
# [12] = system: Escherichia coli ATCC 9637; test: Bacteriostasis, serial dilution test; type: cell-based; conditions: 320 μg/ml
# Protocol: as §1
# [13] = system: Pseudomonas aeruginosa Hbg.; test: Bacteriostasis, serial dilution test; type: cell-based; conditions: 320 μg/ml
# Protocol: as §1
# Streptococcus Aronson [14] = test: Bacteriostasis, serial dilution test; type: cell-based; conditions: 320 μg/ml
# Protocol: as §1
# [15] = system: Staphylococcus aureus SG 511; test: Bacteriostasis, serial dilution test; type: cell-based; conditions: 320 μg/ml
# Protocol: as §1
# rats [16] = test: Effect on diuresis in water-loaded rats; type: in vivo, Chbb:THOM-rats; conditions: for Cl^- excretion / K^+ excretion / Na^+ excretion / Urine: 5 hours
# Protocol: Male Chbb:THOM-rats (SPF) having a body weight of 180-210 gm were kept away from food with free access to water for 24 hours before the test. Substance B was administered orally at dosages of 50, 100 and 200 mg/kg in aqua dist. solution of the rate of 1 ml/100 gm body weight to 6 animals/dose. Additionally, 4 ml water/100 gm body weight were administered orally. A control group received only the solvent and the same additional amount of water.
# Five hours after treatment, the excreted volume of urine of each group was measured, and the concentration of Na^+, K^+ and Cl^- was determined photometrically and complexometrically.
# [17] = system: Candida albicans ATCC 10231; test: Fungistasis, agar diffusion test; type: cell-based; conditions: 16,000 μg/ml
# Protocol: as §1
# Aspergillus niger = test: Fungistasis, agar diffusion test; type: cell-based; conditions: 16,000 μg/ml
# Protocol: as §1
# [18] = system: Trychophyton mentagrophytes ATCC 9129; test: Fungistasis, agar diffusion test; type: cell-based; conditions: 16,000 μg/ml
# Protocol: as §1
# [19] = Acid-stability in 0.1 N hydrochloric acid; type: physicochemical; conditions: 1% in 0.1 N hydrochloric acid, room temperature, 27 days
# Protocol: For the stability test, substance B at a concentration of 1% was dissolved in 0.1 N hydrochloric acid and kept at room temperature for 27 days. […] The solid substance was furthermore tested in daylight and at 60° C. in the absence and in the presence of light for 4 weeks.
# [20] = vs values before administration, N = 3
compound,measurement,setting,value
O=C1NS(=O)(=O)c2cccc(O)c21.[Na],effect on thrombocyte aggregation (in words),thrombocyte aggregation,does not show any effect on thrombocyte aggregation induced by collagen
same,antiexudative effect (in words),rats [1],does not show any antiexudative effect in rats
same,Average degree of swelling,rats [1]; 5 hours,239.0
same,Inhibition in %,rats [1]; 5 hours,13.7%
same,solubility,[2],> 1 gm/10 ml of water
same,water-solubility (in words),[2],easily soluble in water
same,"effect on arterial blood pressure, heart rate and respiration rate (in words)",anesthetized cats,"does not show any effect on the arterial blood pressure, the heart rate and the respiration rate"
same,Change in % blood pressure,anesthetized cats; [20],+1%
same,Change in % heart rate,anesthetized cats; [20],-1%
same,Change in % respiration rate,anesthetized cats; [20],-2%
same,inhibiting effect,[3],did not show any inhibiting effect
same,inhibiting effect,Sc. pyogenes ATCC 8688 [4],did not show any inhibiting effect
same,inhibiting effect,[5],did not show any inhibiting effect
same,inhibiting effect,[6],did not show any inhibiting effect
same,inhibiting effect,Streptococcus Aronson [7],did not show any inhibiting effect
same,inhibiting effect,[8],did not show any inhibiting effect
same,effect on motility of rats (in words),rats [9],does not affect the motility of the rats
same,Motility of rats,rats [9]; 60-90 min,235 ± 58 contacts/animal
same,% motility,"rats [9]; 60-90 min, vs control",113%
same,inhibiting effect,[10],did not show any inhibiting effect
same,inhibiting effect,Sc. pyogenes ATCC 8688 [11],did not show any inhibiting effect
same,inhibiting effect,[12],did not show any inhibiting effect
same,inhibiting effect,[13],did not show any inhibiting effect
same,inhibiting effect,Streptococcus Aronson [14],did not show any inhibiting effect
same,inhibiting effect,[15],did not show any inhibiting effect
same,Cl^- excretion,rats [16]; 50 mg/kg p.o.,616.4 Microval/kg
same,K^+ excretion,rats [16]; 50 mg/kg p.o.,456.6 Microval/kg
same,Na^+ excretion,rats [16]; 50 mg/kg p.o.,456.6 Microval/kg
same,Urine,rats [16]; 50 mg/kg p.o.,45.7 mL/kg
same,Cl^- excretion,rats [16]; 100 mg/kg p.o.,325.5 Microval/kg
same,K^+ excretion,rats [16]; 100 mg/kg p.o.,321.5 Microval/kg
same,Na^+ excretion,rats [16]; 100 mg/kg p.o.,401.9 Microval/kg
same,Urine,rats [16]; 100 mg/kg p.o.,40.2 mL/kg
same,Cl^- excretion,rats [16]; 200 mg/kg p.o.,535.7 Microval/kg
same,K^+ excretion,rats [16]; 200 mg/kg p.o.,425.1 Microval/kg
same,Na^+ excretion,rats [16]; 200 mg/kg p.o.,467.6 Microval/kg
same,Urine,rats [16]; 200 mg/kg p.o.,42.5 mL/kg
same,effect on diuresis (in words),"rats [16]; 50, 100 and 200 mg/kg p.o.",does not show any effect on diuresis in rats
same,inhibiting effect,[17],did not show any inhibiting effect
same,inhibiting effect,Aspergillus niger,did not show any inhibiting effect
same,inhibiting effect,[18],did not show any inhibiting effect
same,stability in acid medium,[19],No changes could be detected
